Values joined by “and” are separate entries in the source; they are usually repeats but may differ in a detail not shown here. Equal values may be shown once.
How the values were obtained:
[1] = target: T1, 4E-BP1 binding to eIF4E (Homo sapiens, UniProt P06730); assay: Co-immunoprecipitation with eIF4E antibody, immunoblot for 4E-BP1, SW620 lysates; format: biochemical; details: 1–100 µM, 30 min
T1 construct: endogenous in cells; host or cells: SW620 cell lysates
Procedure: (§1) Cells were harvested by trypsinisation and washed with PBS before lysis in MSD lysis buffer (150 mM NaCl, 20 mM Tris pH 7.5, 1 mM EDTA, 1 mM EGTA, 1% Triton X-100) containing protease inhibitors (Roche, complete mini tablet, cat# 11836153001) and phosphatase inhibitors (50 mM NaF and 100 mM Na3VO4). Lysate was placed on ice for 30 min and then cleared in a microfuge at 17,000 x g for 10 min at 4 °C. The protein concentration of the cleared lysate was determined by BCA assay (Pierce) and adjusted to 4 mg/ml with lysis buffer. […] 100 μl of lysate and 100 μl of beads were then incubated with shaking overnight at 4 °C. Samples were then washed 3x with 1 ml PBS, resuspended in 100 μl PBS and boiled for 10 min with 1x SDS-PAGE sample buffer containing 10 μl 1 mM DTT.
(§2) After seeding overnight in 6 well plates (Corning, cat#353046), cells were treated with compounds for the indicated times and concentration, harvested and the cell pellet lysed on ice in cell lysis buffer (Cell Signaling, cat#9803), supplemented with 1x Halt^TM protease inhibitor cocktail (Fisher Scientific, cat#78429) and cOmplete^TM protease inhibitor cocktail (Sigma-Aldrich, cat#11836153001) for 1 hr. Protein was quantified using BCA protein kit (Fisher Scientific, cat#23225). […] Quantitative densitometry analysis of protein bands was performed using Image J v1.53 software.

[2] = target: T2, endogenous eIF4E:eIF4G interaction (Homo sapiens, UniProt P06730); assay: Electro-chemiluminescent eIF4E:eIF4G assay after treatment of intact H1299 cells; format: cell-based; details: 100 µM; for disruption of eIF4E:eIF4G binding in intact cells: 16 hr; for endogenous eIF4E:eIF4G interaction in intact cells, electro-chemiluminescent signal, Average: H1299
T2 construct: endogenous in cells; host or cells: HeLa, SW620 or H1299 cells (lysates; intact H1299 cells in A13)

[3] = target: T3, eIF4G binding to eIF4E (Homo sapiens, UniProt P06730); assay: Co-immunoprecipitation with eIF4E antibody, immunoblot for eIF4G, SW620 lysates; format: biochemical; details: 1–100 µM, 30 min
T3 construct: endogenous in cells; host or cells: SW620 cells (lysates)
Procedure: as §1, §2

[4] = target: eIF4E–4E-BP1 interaction (Homo sapiens, UniProt P06730); assay: Electro-chemiluminescent binding assay, eIF4E:4E-BP1, HeLa cell lysates; format: biochemical; set-up: endogenous in cells; host or cells: HeLa cell lysates; details: for EC50: read-out: Inhibition of PPI in HeLa cells: eIF4E–4E-BP1 interaction, HeLa cell lysates, values in parentheses
Procedure: This assay uses plates with carbon electrodes and electro-chemiluminescent labels (SULFO-TAGs) that are conjugated to detection antibodies. When an electric current is applied to the plate electrodes the SULFO-TAG labels will emit light that is measured to quantify analytes in the sample. […] The plates were washed with 3 ×150 µl/well MSD wash buffer (cat#R61AA-1; 0.2% Tween-20 in PBS), then blocked with 150 µl/well block buffer (MSD, cat# R93AA) for 1 h. […] The incubated plates were washed 4x in 150 µl in MSD wash buffer and were re-blocked by the addition of 25 μl of blocking buffer containing a 1:500 dilution of the secondary antibody and incubated for 1 hr at RT with rotational shaking. […] Plates were then washed again 4x in 150 µl in MSD wash buffer and 25 μl of a 1:50 dilution of Goat anti-rabbit Sulfo-Tag (MSD, Cat# R32AB-1) in MSD blocking buffer was added and the plates incubated for 1 h at RT with rotational shaking. After a final wash step, 150 μl Read Buffer T4X (MSD, Cat# R92-TC2) was added and the plate read using the MSD QuickPlex SQ 120 plate reader.

[5] = target: T4, eIF4E-dTAG protein (Homo sapiens, UniProt P06730); assay: CETSA of eIF4E-dTAG protein in H1299 C3-1 cells; format: cell-based; details: relative to control = 1.000, n=3
T4 construct: expressed in transfected cells
Procedure: Cells (1.5 × 10^6 cells) were plated into 75 cm^2 flasks and allowed to attached overnight. After treatment with compound 4 or 5 for 6 h, they were harvested by trypsinisation and washed x2 in ice cold PBS. Cells were resuspended in 1 ml of cold PBS supplemented with protease and phosphatase inhibitors (Fisher Scientific, cat#1861281). Resuspended cells were divided into 100 μl aliquots and centrifuged at 300 x g for 3 min at 4 °C. Following centrifugation, 75μl of supernatant was removed and cells resuspended in the remaining volume. Cell suspensions were heated at 40.9, 43.7, 48.1, 52.9, 57.6, 62.4, 67.2, 71.9, 76.3 and 79.1 °C for 3 mins followed by cooling at 20 °C for 3 min[25]. Suspensions were freeze-thawed twice using liquid nitrogen. Soluble fractions were separated from cell debris by centrifuging at 20,000 x g for 30 min at 4 °C. Samples were then analysed by Western Blot. […]
Vinculin was used as a loading control. c Thermal stabilisation of eIF4E-dTAG protein by compound 4 or 5 binding. Quantification of immunoblots from H1299 C3-1cells incubated at 57.6 °C, following treatment with compound 4 (50, 25, 10, 5, 1, 0.5 μM) or compound 5 (50 μM) for 6 hr. Vinculin was […]
(1 picture or pasted object on this page, not shown here)

[6] = test system: cap-dependent and cap-independent (IRES) protein synthesis; assay: Bicistronic protein synthesis reporter in H1299 cells; format: cell-based, human; details: 24 hr; for protein synthesis reporter signal (cap-dependent luciferase / IRES luciferase), replicate values: H1299, normalisation not stated
Procedure: H1299 cells were transfected with a biscistronic vector using Lipofectamine 3000 transfection reagent (Fisher Scientific, cat#L3000008) for 24 hr and then treated with compounds for further 24 h. Luminescence was measured after 24 h of compound treatment using the Dual Glo luciferase reporter assays as above.

[7] = test system: IRES-driven translation; assay: HeLa in vitro translation assay, IRES-driven reporter; format: biochemical, human; details: for rLuc (IRES) luminescence normalized to DMSO control, Average: HeLa lysate IVT, n=3
Procedure: HeLa In vitro translation (IVT) assay kits were purchased from Thermo Fisher(cat#88882). Bicistronic reporter mRNA was prepared from using a CMV/T7-renilla luciferase-IRES(FDMV)-firefly luciferase reporter vector as template DNA (supplied by Oxford Genetics Ltd.) using Message Machine T7 Ultra transcription Kit (Thermo Fisher, cat# AM1345) to generate in vitro transcribed mRNA. DNA template was removed with Turbo DNase from the transcription kit and the mRNA purified using RNeasy columns (Qiagen, cat#74204). RNA concentration was adjusted to 1 µg/µl using a Nanodrop. In vitro translation assays were then set up using a HeLa IVT kit according to the manufacturer’s protocol. The reaction was analysed using Dual Glo luciferase reporter assays (Promega, cat#E2920). Compounds were diluted from 100x DMSO stocks 1:10 in PBS and 2.5 µl transferred to 96 well PCR plates (Starlab, cat#I1402-9700). 22.5 µl IVT reaction mix (1.5 mL HeLa lysate, 60 µl RNAsin (Promega, cat#N2115), 300 µl accessory proteins, 600 µl reaction buffer, 200 µl nuclease free water and 30 µl […] mRNA) was added and incubated for 30 min at 30 °C (PCR alphacycler 4, PCRmax, Stone, Staffordshire, UK). The samples were placed on ice for 10 min, then 10 µl was removed and transferred to a white 96 well assay plate (Corning, cat#3917). […]

[8] = test system: H1299 cells; assay: CellTiter-Blue cell viability, H1299; format: cell-based, human; details: for Cell viability by cell titre blue assay, Average: H1299, 4 days, n=3
Procedure: Cell viability was measured by CellTiter-Blue® Cell Viability Assay. Cells were seeded in 96 well plates (Corning, cat#353072) and left overnight. Compounds were added at a range of concentrations and plates incubated at 37 °C for 96 hr. Cell titre blue reagent (Promega, Hampshire, UK, cat# G8081) was added (5 μl/well) and incubated for a further 2 h at 37 °C. Fluorescence (579Ex/584Em) was measured using a PHERAstar plate reader.

T4 sequence (P06730 with tags, fused parts or gaps): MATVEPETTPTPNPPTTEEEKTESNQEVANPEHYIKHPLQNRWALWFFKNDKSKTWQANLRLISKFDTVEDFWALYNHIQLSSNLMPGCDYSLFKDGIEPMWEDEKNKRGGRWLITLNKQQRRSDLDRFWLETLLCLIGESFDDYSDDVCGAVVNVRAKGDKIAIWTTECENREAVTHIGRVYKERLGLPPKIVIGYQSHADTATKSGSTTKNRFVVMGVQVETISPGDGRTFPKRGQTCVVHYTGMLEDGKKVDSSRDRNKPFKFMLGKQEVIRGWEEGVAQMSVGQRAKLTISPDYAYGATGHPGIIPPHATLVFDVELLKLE
T2 sequence (P06730 2-217 limits assumed): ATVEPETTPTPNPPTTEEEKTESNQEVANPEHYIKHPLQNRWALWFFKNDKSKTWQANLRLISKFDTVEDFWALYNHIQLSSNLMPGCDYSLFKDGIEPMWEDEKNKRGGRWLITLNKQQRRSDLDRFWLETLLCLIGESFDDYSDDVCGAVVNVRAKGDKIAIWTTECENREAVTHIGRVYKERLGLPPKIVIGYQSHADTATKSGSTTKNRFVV
Sequence of eIF4E–4E-BP1 interaction (P06730 2-217 limits assumed): as above
T1 sequence (P06730 2-217 limits assumed): as above
T3 sequence (P06730 2-217 limits assumed): as above

Structure (SMILES) | effect on 4E-BP1 binding to eIF4E (co-immunoprecipitation) [1] | disruption of eIF4E:eIF4G binding in intact cells [2] | endogenous eIF4E:eIF4G interaction in intact cells, electro-chemiluminescent signal, Average ([2]; 6hr, control 1641896.8) | endogenous eIF4E:eIF4G interaction in intact cells, electro-chemiluminescent signal, Average ([2]; 16hr, control 1700881.1) | effect on eIF4G binding to eIF4E (co-immunoprecipitation) [3] | EC50 [4] [µM] | Thermal stabilisation of eIF4E-dTAG protein, Average ([5]; 50 μM) | protein synthesis reporter signal (cap-dependent luciferase / IRES luciferase), replicate values ([6]; 10 μM) | protein synthesis reporter signal (cap-dependent luciferase / IRES luciferase), replicate values ([6]; 25 μM) | rLuc (IRES) luminescence normalized to DMSO control, Average ([7]; 1 μM) [%] | rLuc (IRES) luminescence normalized to DMSO control, Average ([7]; 10 μM) [%] | rLuc (IRES) luminescence normalized to DMSO control, Average ([7]; 100 μM) [%] | Cell viability by cell titre blue assay, Average ([8]; 0.62 uM) | Cell viability by cell titre blue assay, Average ([8]; 1.85 uM) | Cell viability by cell titre blue assay, Average ([8]; 5.56 uM) | Cell viability by cell titre blue assay, Average ([8]; 16.67 uM) | Cell viability by cell titre blue assay, Average ([8]; 50 uM) | also measured
CC[C@H](O[C@H](C)CO)c1ccc(-c2ccccc2F)cc1NCCO [Compound 4] | did not disrupt 4E-BP1 binding to eIF4E | significantly disrupt eIF4E:eIF4G binding | 1444726.0 | 549014.1 | disrupted eIF4G binding to eIF4E | > 100 | 1.946 | 0.798 and 0.925 and 1.853 and 1.040 and 0.865 and 0.241 | 1.174 and 0.369 and 0.133 and 0.780 and 0.760 and 1.031 | 97.0 | 85.6 | 88.7 | 93.752 | 89.518 | 87.397 | 77.938 | 33.702 | 4E-BP1:eIF4E HeLa, luminescence ratio normalised to DMSO control ([4]; HeLa lysates, 100 µM, 30 min, single experiments Expt 1, Expt 2): 88% and 92%; Thermal stabilisation of eIF4E-dTAG protein, Average ([5]; 0.5 μM): 1.070; Thermal stabilisation of eIF4E-dTAG protein, Average ([5]; 1 μM): 1.047; Thermal stabilisation of eIF4E-dTAG protein, Average ([5]; 5 μM): 1.235; Thermal stabilisation of eIF4E-dTAG protein, Average ([5]; 10 μM): 1.737; Thermal stabilisation of eIF4E-dTAG protein, Average ([5]; 25 μM): 1.613; inhibitory activity in dual reporter assay ([6]; H1299 cells): lacked inhibitory activity; EC50 ([7]; HeLa in vitro translation, 30 min, read-out: effect on IRES-driven translation): > 100 µM; antiproliferative activity ([8]; H1299, 96 hr): lacked on-target antiproliferative activity
CC[C@@H](O[C@H](C)CO)c1ccc(-c2ccccc2F)cc1NCCO [Compound 5] | limited effect | some limited evidence of activity | 1584729.4 | 1071107.1 | limited effect | > 100 | 1.004 | 0.991 and 1.031 and 2.154 and 1.191 and 1.096 and 0.294 | 1.003 and 1.037 and 1.187 and 0.927 and 1.046 and 2.532 | 100.6 | 89.2 | 98.4 | 92.413 | 89.367 | 90.001 | 80.933 | 48.944 | effect on cap-independent IRES-driven translation ([7]; 1, 10, 100 µM): no significant effect

Reference: PMC11868579 (Nature Communications, 2024)
